According to BindingDB's records for doi:10.1021/jm00388a036 (1987):

Target: Thymidine kinase (Herpes simplex virus 1)
Assay: Binding affinity was determined against Herpes simplex virus (HSV) -1 thymidine kinase in vero cell monolayer culture

Ki: 25 µM
Structure (SMILES): Nc1nc2c(ncn2CC=C(CO)CO)c(=O)[nH]1
